# Activity calls are given as the source filed them.
# Assays:
# [1] = target: T1, DNA repair protein RAD52 homolog (Homo sapiens, UniProt P43351); assay type: functional, biochemical
# T1 sequence (P43351 whole entry): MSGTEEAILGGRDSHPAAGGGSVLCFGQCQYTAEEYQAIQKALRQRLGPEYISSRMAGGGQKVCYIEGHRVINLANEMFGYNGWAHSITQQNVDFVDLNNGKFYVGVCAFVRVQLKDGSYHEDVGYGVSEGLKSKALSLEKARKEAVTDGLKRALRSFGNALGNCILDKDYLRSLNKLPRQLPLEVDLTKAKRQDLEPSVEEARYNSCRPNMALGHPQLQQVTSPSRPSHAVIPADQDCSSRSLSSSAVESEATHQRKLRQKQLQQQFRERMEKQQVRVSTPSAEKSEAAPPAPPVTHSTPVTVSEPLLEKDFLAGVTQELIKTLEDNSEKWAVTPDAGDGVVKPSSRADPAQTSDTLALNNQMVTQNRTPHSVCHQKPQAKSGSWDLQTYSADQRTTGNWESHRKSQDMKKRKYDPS
# [2] = target: T2, Trace amine-associated receptor 1 (Homo sapiens, UniProt Q96RJ0); test: Fluorescence-based cell-based high throughput dose response assay to identify agonists of the human trace amine associated receptor 1 (TAAR1).; assay type: functional
# T2 sequence (Q96RJ0 whole entry): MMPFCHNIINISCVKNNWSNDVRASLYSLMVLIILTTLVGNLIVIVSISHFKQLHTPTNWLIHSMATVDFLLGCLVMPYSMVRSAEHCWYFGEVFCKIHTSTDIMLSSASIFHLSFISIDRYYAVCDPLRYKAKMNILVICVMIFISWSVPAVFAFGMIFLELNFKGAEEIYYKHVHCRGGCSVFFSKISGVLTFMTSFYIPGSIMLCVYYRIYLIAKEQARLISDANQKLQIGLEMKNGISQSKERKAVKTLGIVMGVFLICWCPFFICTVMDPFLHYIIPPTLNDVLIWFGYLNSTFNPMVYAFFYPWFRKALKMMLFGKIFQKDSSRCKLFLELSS
# [3] = target: T2, Trace amine-associated receptor 1; test: Counterscreen for agonists of the human trace amine associated receptor 1 (hTAAR1): Fluorescence-based cell-based high throughput dose response assay to identify hTAAR1 agonist that also desensitize TAAR1 receptor response.; assay type: functional
# cells [4] = assay type: functional, cell-based
# cells [5] = assay type: functional, cell-based; remark: listed apart in the source
# [6] = target: T3, Probable nicotinate-nucleotide adenylyltransferase (Staphylococcus aureus (strain N315), UniProt P65502); assay type: functional, Staphylococcus aureus subsp. aureus N315;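 for IC50 Mean: confirmatory dose-response retesting of NadD inhibitor hits first found in an ultra-high-throughput screen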
# [7] = target: T3, Probable nicotinate-nucleotide adenylyltransferase; assay type: functional, Staphylococcus aureus subsp. aureus N315; conditions: read-out: IC50_Mean
# [8] = Fluorescence-based cell-based high throughput dose response assay for inhibitors of the interaction of nucleotide-binding oligomerization domain containing 2 (NOD2) and the receptor-interacting serine-threonine kinase 2 (RIPK2).; assay type: functional; conditions: Homo sapiens
# cells [9] = assay type: functional, cell-based; remark: listed apart in the source
# [10] = Shn3 3'UTR reporter inhibitors, dose response, cell-based, Clone20 osteoblasts, firefly luciferase, cherry-picked (AID 624132); assay type: functional;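 note: firefly luciferase luminescence from reporter carrying the Shn3 3'UTR in osteoblasts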
# [11] = target: T4, Microphthalmia-associated transcription factor (Homo sapiens, UniProt O75030); test: TRPM1 promoter luciferase signal decrease, dose response, MITF inhibitor project, cell-based, SK-MEL-5, cherry-picked, set 3 (AID 493073); assay type: functional
# T4 sequence (O75030 whole entry): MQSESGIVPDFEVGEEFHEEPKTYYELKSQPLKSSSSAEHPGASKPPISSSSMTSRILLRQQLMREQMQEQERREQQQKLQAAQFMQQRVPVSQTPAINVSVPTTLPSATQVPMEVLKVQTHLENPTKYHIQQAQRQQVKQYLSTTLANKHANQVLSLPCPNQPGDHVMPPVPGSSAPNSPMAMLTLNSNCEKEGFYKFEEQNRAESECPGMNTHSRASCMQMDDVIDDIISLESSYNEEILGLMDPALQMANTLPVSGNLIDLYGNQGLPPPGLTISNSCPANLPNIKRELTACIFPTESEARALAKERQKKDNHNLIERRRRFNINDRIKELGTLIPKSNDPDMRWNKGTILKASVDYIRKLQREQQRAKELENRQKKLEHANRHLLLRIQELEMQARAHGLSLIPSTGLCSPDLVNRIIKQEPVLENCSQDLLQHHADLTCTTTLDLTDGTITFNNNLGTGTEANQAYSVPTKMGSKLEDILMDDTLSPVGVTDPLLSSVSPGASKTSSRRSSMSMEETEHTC
# [12] = control 3'UTR Renilla luciferase suppression, dose response, counter-screen for Shn3 inhibitor project, cell-based, Clone20-Shn3RL, cherry-picked (AID 624133); assay type: functional
# [13] = target: T5, Replicative DNA helicase DnaB (Mycobacterium tuberculosis, UniProt P9WMR3); test: DnaB intein splicing inhibitors, dose response, biochemical, cell-free fluorescence (AID 449749); assay type: functional
# T5 sequence (P9WMR3 whole entry): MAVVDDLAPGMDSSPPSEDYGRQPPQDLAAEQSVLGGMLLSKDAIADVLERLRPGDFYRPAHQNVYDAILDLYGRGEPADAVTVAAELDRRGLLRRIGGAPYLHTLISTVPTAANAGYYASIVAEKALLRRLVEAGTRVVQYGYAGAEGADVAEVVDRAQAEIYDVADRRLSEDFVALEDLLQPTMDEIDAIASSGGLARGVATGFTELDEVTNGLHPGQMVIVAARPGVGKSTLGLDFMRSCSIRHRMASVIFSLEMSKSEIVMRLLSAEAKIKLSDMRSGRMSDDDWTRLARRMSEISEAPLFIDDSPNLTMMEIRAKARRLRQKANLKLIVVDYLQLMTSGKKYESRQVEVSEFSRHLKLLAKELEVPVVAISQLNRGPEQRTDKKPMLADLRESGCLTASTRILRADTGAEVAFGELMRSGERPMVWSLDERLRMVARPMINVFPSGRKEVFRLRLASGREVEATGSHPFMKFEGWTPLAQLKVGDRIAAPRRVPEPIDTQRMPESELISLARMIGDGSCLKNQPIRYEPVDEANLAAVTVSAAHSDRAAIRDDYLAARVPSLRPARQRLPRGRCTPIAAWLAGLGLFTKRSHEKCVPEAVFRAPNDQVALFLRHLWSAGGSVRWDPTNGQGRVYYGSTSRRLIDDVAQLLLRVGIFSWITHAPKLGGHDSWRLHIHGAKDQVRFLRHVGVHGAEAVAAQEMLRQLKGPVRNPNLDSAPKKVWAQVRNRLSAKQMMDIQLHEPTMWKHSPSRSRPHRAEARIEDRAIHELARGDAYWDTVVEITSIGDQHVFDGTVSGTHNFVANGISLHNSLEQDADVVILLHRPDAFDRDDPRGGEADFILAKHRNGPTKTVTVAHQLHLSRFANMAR
# [14] = HepG2 cell cytotoxicity, dose response, cytotoxicity control for Shn3 inhibitor project, CellTiter-Glo, cherry-picked (AID 624134); assay type: functional, cell-based
# [15] = Luminescence Cell-Based Dose Retest to Confirm Inhibitors of Cancer Stem Cells. [Related pubchem assays (depositor defined):AID2717, AID2721]; assay type: functional; conditions: Homo sapiens
# Protein RecA = target: T6, Protein RecA (Mycobacterium tuberculosis, UniProt P9WHJ3); test: Fluorescence Cell-Free Homogeneous Dose Retest to Identify Inhibitors of RecA-Intein Splicing Activity. [Related pubchem assays (depositor defined):AID2097, AID2223, AID489010, AID492950]; assay type: functional
# T6 sequence (P9WHJ3 whole entry): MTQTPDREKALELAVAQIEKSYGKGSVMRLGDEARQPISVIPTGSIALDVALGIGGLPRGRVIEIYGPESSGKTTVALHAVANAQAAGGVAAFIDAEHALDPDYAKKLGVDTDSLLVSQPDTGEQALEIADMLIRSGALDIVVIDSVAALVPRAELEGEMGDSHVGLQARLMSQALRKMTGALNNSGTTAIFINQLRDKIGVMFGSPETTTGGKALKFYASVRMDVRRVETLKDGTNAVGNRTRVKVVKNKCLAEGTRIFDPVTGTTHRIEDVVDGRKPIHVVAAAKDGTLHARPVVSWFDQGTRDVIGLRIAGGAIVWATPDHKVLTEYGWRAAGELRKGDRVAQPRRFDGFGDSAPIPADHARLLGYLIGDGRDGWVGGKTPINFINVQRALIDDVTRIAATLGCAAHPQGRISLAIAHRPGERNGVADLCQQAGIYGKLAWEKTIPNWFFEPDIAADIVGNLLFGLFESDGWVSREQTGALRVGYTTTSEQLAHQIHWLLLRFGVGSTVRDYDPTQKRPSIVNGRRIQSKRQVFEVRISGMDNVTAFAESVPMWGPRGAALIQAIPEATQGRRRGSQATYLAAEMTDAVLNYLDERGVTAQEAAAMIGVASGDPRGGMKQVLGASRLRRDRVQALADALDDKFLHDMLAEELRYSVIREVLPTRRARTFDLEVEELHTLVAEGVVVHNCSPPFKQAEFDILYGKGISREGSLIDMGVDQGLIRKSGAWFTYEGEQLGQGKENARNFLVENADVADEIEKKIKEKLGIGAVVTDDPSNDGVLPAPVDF
# cells [16] = assay type: functional, cell-based; remark: listed apart in the source
# Paired box protein Pax-8 = Paired box protein Pax-8 (Homo sapiens, UniProt Q06710); test: inhibitors of PAX8-driven TPO luciferase reporter, dose response, RMG-I cells, cherry-pick (AID 687027); assay type: functional, cell-based;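 note: luciferase reporter driven by Pax8 target thyroperoxidase promoter measured by SteadyGlo luminescence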
# [17] = cytotoxicity in HEK-293T cells, dose response, cytotoxicity control for BCR NF-kB inhibitor project, luminescence, B-cell screen hits (AID 489021); assay type: functional, cell-based;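 note: HEK-293T cells carrying an NF-kB luciferase reporter; cells exposed to compound for about 14 hours before viability readout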
# Protein Wnt-3a = Protein Wnt-3a (Mus musculus, UniProt P27467); test: Wnt3a-driven reporter signaling inhibition, dose response, selectivity assay for Gli-SUFU antagonist project, Wnt-LIGHT cells, luminescence (AID 651570); assay type: functional; conditions: read-out: IC50_Mean;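 note: Wnt-LIGHT reporter cells stimulated with conditioned medium from Wnt3a-producing cells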
# [18] = target: Photoreceptor-specific nuclear receptor (Homo sapiens, UniProt Q9Y5X4); assay type: functional, cell-based;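 note: CHO-S cells with Gal4-NCOR and VP16-NR2E3 two-hybrid luciferase reporter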
# [19] = intracellular Trypanosoma cruzi inhibitors in host cells – cell-based, plate reader, cherry-pick samples, set 3, dose response (AID 651818); assay type: functional;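 note: compounds incubated with infected cells for about four days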
# T3 sequence (P65502 whole entry): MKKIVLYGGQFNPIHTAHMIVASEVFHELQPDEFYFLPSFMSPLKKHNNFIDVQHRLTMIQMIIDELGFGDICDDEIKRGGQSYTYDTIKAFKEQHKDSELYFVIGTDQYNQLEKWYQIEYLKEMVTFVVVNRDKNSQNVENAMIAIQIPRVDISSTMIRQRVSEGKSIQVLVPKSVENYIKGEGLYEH
# Sequence of Paired box protein Pax-8 (Q06710 whole entry): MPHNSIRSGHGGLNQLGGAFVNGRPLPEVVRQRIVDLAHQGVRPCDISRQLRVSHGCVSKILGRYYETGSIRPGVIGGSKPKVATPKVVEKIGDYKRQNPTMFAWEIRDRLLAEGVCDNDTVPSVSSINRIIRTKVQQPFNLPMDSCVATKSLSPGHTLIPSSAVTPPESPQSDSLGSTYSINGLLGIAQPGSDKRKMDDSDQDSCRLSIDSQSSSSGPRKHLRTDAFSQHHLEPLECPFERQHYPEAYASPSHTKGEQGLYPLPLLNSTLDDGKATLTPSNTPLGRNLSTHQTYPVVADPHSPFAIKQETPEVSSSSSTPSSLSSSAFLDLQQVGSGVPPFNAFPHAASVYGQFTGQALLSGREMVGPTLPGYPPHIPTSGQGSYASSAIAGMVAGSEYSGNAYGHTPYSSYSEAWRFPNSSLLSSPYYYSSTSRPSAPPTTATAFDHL
# Sequence of Photoreceptor-specific nuclear receptor (Q9Y5X4 whole entry, the tested form may be a part): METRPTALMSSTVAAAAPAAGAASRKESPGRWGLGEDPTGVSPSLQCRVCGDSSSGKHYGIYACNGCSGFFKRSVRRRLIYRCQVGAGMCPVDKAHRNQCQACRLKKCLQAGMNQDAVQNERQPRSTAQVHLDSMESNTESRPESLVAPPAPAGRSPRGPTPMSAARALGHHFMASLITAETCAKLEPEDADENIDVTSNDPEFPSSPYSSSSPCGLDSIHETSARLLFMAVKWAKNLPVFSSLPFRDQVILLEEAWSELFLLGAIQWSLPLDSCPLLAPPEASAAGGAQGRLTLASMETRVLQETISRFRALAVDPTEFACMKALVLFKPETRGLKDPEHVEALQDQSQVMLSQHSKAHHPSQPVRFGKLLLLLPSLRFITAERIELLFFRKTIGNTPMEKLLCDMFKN
# Sequence of Protein Wnt-3a (P27467 whole entry, the tested form may be a part): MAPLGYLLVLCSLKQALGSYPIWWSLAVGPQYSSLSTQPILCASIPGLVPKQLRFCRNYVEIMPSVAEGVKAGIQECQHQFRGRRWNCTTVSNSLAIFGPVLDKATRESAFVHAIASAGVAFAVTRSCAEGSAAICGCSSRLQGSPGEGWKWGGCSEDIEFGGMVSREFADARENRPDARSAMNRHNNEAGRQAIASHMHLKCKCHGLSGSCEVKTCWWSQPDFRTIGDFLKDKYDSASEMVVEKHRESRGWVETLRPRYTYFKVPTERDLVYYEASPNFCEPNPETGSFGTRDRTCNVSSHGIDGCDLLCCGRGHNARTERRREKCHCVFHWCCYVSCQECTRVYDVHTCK
compound,measurement,setting,value
Cc1cccc2sc(N(CCCN(C)C)C(=O)c3ccc(Cl)s3)nc12,AC50,[1],24.9 µM (active)
O=C(CC1Nc2ccccc2NC1=O)NCCc1ccccc1 (stereo unspecified),EC50,[2],2.27 µM (active)
same,IC50,[3],7.18 µM (active)
same,IC50,cells [4],> 29.9 µM (inactive)
same,EC50,cells [5],> 29.9 µM (inactive)
O=C(O)/C=C/C(=O)NCCc1cccc(Cl)c1,EC50,[2],0.7 µM (active)
same,IC50,[3],3.77 µM (active)
same,IC50,cells [4],> 29.9 µM (inactive)
same,EC50,cells [5],> 29.9 µM (inactive)
Cc1ccc(Cn2nnc3c(O)nc(C4CCN(S(=O)(=O)c5ccc(S(=O)(=O)NC6CC6)cc5)CC4)nc32)cc1,IC50,[6],23.7 µM (active)
same,IC50,[7],54.4 µM (active)
COc1ccccc1-c1cc(C(F)(F)F)nc(S(C)(=O)=O)n1,IC50,[8],3.63 µM (active)
same,EC50,cells [9],> 350 µM (not active)
same,AC50,[10],4.06 µM (active)
same,AC50,[11],6.81 µM (active)
same,AC50,[12],12.4 µM (active)
same,AC50,[13],5.35 µM (active)
same,AC50,[14],37.6 µM (active)
same,AC50,[15],5.07 µM (active)
same,EC50,Protein RecA,10 µM (active)
same,EC50,cells [16],> 350 µM (not active)
CCN(CC(=O)Nc1c(F)cccc1F)C(=O)c1cc(S(=O)(=O)N(CC)CC)ccc1N1CCCCC1,AC50,Paired box protein Pax-8,3.02 µM (active)
same,IC50,[17],> 80 µM (inactive)
same,IC50,Protein Wnt-3a,11.4 µM (active)
O=C(C(=Cc1ccccc1)CN1CCCCC1)c1ccccc1,IC50,[18],3.73 µM (active)
same,AC50,[10],3.18 µM (active)
same,AC50,[12],5.08 µM (active)
same,AC50,[14],8.28 µM (active)
O=C(NCC1CCCO1)c1ccc(NC(=O)c2ccc(Br)cc2)cc1 (stereo unspecified),EC50,[2],1.45 µM (active)
same,IC50,[3],> 29.9 µM (inactive)
same,IC50,cells [4],> 29.9 µM (inactive)
same,EC50,cells [5],> 29.9 µM (inactive)
Cc1ccc(S(=O)(=O)Nc2ccc(Nc3nccn4c(-c5ccccc5Oc5ccccc5)cnc34)cc2)cc1,IC50,[6],10.4 µM (active)
same,IC50,[7],20.1 µM (active)
C[C@@H]1CN([C@H](C)CO)C(=O)c2cccc(NC(=O)Nc3ccc(C(F)(F)F)cc3)c2O[C@@H]1CN(C)S(=O)(=O)c1ccc(Cl)cc1,AC50,[19],3.52 µM (active)
Cc1ccc(S(=O)(=O)Nc2cccc3c2O[C@@H](CN(C)Cc2ccc(C(=O)Nc4ccccc4N)cc2)[C@H](C)CN([C@H](C)CO)C3=O)cc1,AC50,[19],3.87 µM (active)
C[C@H](CO)N1C[C@H](C)[C@H](CN(C)Cc2ccc(Cl)c(Cl)c2)Oc2ccc(NC(=O)Nc3ccc(C(F)(F)F)cc3)cc2C1=O,AC50,[19],3.24 µM (active)
COc1ccc(NC(=O)Nc2ccc3c(c2)CC(=O)N([C@H](C)CO)C[C@@H](C)[C@@H](CN(C)Cc2ccc(Cl)c(Cl)c2)O3)cc1,AC50,[19],3.35 µM (active)
COc1ccc(CC2=NCCc3cc(OC)c(OC)cc32)cc1OC,AC50,[1],15.2 µM (active)
Cc1ccc(-n2nc(C)c(/C=N/c3ccc(S(=O)(=O)Nc4nccs4)cc3)c2O)cc1C,IC50,[6],4.08 µM (active)
same,IC50,[7],17.4 µM (active)

# Reference: ChEMBL document CHEMBL1201862, “PubChem BioAssay data set” (2004)
